The assay has as its target PD-1/PD-L1 interaction (PD-1-Ig / PD-L1-His) (Homo sapiens (Human), UniProt Q9NZQ7). Briefly: PD-1/PD-L1 Homogenous Time-Resolved Fluorescence (HTRF) binding assay. To be noted: PD-1/PD-L1 HTRF binding assay, read-out: Range or IC50. The source says:
The ability of the compounds of formula (I) to bind to PD-L1 was investigated using a PD-1/PD-L1 Homogenous Time-Resolved Fluorescence (HTRF) binding assay.
Homogenous Time-Resolved Fluorescence (HTRF) Binding Assay.
The interaction of PD-1 and PD-L1 can be assessed using soluble, purified preparations of the extracellular domains of the two proteins. The PD-1 and PD-L1 protein extracellular domains were expressed as fusion proteins with detection tags, for PD-1, the tag was the Fc portion of Immunoglobulin (PD-1-Ig) and for PD-L1 it was the 6 histidine motif (PD-L1-His). All binding studies were performed in an HTRF assay buffer consisting of dPBS supplemented with 0.1% […] bovine serum albumin and 0.05% (v/v) Tween-20. For the h/PD-L1-His binding assay, inhibitors were pre-incubated with PD-L1-His (10 nM final) for 15 m in 4 μl of assay buffer, followed by addition of PD-1-Ig (20 nM final) in 1 μl of assay buffer and further incubation for 15 m. HTRF detection was achieved using europium crypate-labeled anti-Ig (1 nM final) and allophycocyanin (APC) labeled anti-His (20 nM final). Antibodies were diluted in HTRF detection buffer and 5 μl was dispensed on top of the binding reaction. […] Additional binding assays were established between the human proteins PD-1-Ig/PD-L2-His (20 & 5 nM, respectively) and CD80-His/PD-L1-Ig (100 & 10 nM, respectively). […]

Like-named read-outs stand apart in the source and are kept apart here.

This is an account of results in patent US9850225B2, “Compounds useful as immunomodulators” (BRISTOL-MYERS SQUIBB COMPANY, priority 2014, dated 2017).

The IC50 is the concentration needed to halve the response being measured.

Chain of PD-1/PD-L1 interaction (PD-1-Ig / PD-L1-His) (Q9NZQ7 other isoform, or with tags, fused parts or gaps): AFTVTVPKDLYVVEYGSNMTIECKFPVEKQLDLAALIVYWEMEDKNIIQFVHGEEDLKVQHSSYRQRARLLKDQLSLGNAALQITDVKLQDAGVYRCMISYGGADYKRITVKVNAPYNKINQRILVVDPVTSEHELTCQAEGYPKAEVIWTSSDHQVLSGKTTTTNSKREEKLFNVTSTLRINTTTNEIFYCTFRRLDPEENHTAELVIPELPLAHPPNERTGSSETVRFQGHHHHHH

With `COC(C)(C)C(NCc1cc(Cl)c(OCc2cccc(-c3ccc4c(c3)OCCO4)c2C)cc1OCc1cccc(C#N)c1)C(=O)O` (stereo not shown) [Example 1179, 2-((5-chloro-2-((3-cyanobenzyl)oxy)-4-((3-(2,3-dihydrobenzo[b][1,4]dioxin-6-yl)-2-methylbenzyl)oxy)benzyl)amino)-3-methoxy-3-methylbutanoic acid], the half-inhibitory concentration (IC50) (value given as range class) lay within 10 to 100 nM.

As to `Cc1cc(CN2CCCC[C@H]2C(=O)O)c(OCc2cncc(C#N)c2)cc1OCc1cccc(-c2ccc3c(c2)OCCO3)c1C` [Example 1285, (S)-1-(2-((5-cyanopyridin-3-yl)methoxy)-4-(3-(2,3-dihydrobenzo[b][1,4]dioxin-6-yl)-2-methylbenzyloxy)-5-methylbenzyl)piperidine-2-carboxylic acid], the IC50 (value given as range class) lay within 0.6 to 10 nM.

Take `Cc1cc(OCc2cccc(-c3ccc4c(c3)OCCO4)c2C)cc(OCc2cncc(C#N)c2)c1CN[C@H](CO)C(=O)O` [Example 1007, (R)-2-(2-((5-cyanopyridin-3-yl)methoxy)-4-(3-(2,3-dihydrobenzo[b][1,4]dioxin-6-yl)-2-methylbenzyloxy)-6-methylbenzylamino)-3-hydroxypropanoic acid]: the concentration for half-maximal inhibition (IC50) (value given as range class) fell in the range of 0.6 to 10 nM.

Regarding `Cc1cc(CNC[C@@H](O)CC(=O)O)c(OCCCCC#N)cc1OCc1cccc(-c2ccc3c(c2)OCCO3)c1C` [Example 1295, (S)-4-(2-(4-cyanobutoxy)-4-(3-(2,3-dihydrobenzo[b][1,4]dioxin-6-yl)-2-methylbenzyloxy)-5-methylbenzylamino)-3-hydroxybutanoic acid], under “value given as range class”, the 50% inhibitory concentration (IC50) lay in the range of 0.6 to 10 nM.

With `Cc1c(COc2cc(OCc3cccc(C#N)c3)c(CN3CC[C@@H](O)[C@H]3C(=O)O)cc2Cl)cccc1-c1ccc2c(c1)OCCO2` [Example 1204, (2S,3R)-1-(5-chloro-2-((3-cyanobenzyl)oxy)-4-((3-(2,3-dihydrobenzo[b][1,4]dioxin-6-yl)-2-methylbenzyl)oxy)benzyl)-3-hydroxypyrrolidine-2-carboxylic acid], for the setting “value given as range class”, the 50% inhibitory concentration (IC50) lay in the range of 0.6 to 10 nM.

On to `COc1cc(OCc2cccc(-c3ccccc3)c2C)cc(OCc2cccc(C#N)c2)c1CN[C@@H](C(=O)O)[C@@H](C)O` [Example 1138, (2R,3R)-2-((2-((3-cyanobenzyl)oxy)-6-methoxy-4-((2-methyl-[1,1′-biphenyl]-3-yl)methoxy)benzyl)amino)-3-hydroxybutanoic acid], for which, for the setting “value given as range class”, the IC50 was in the range of 10 to 100 nM.

Turning to `CC(=O)NCCNCc1cc(C)c(OCc2cccc(-c3ccc4c(c3)OCCO4)c2C)cc1OCc1ccc(F)c(C#N)c1` [Example 1271, N-(2-((2-((3-cyano-4-fluorobenzyl)oxy)-4-((3-(2,3-dihydrobenzo[b][1,4]dioxin-6-yl)-2-methylbenzyl)oxy)-5-methylbenzyl)amino)ethyl)acetamide], the IC50 (value given as range class) fell in the range of 0.6 to 10 nM.

Regarding `N#Cc1cccc(COc2cc(OCc3cccc(-c4ccc5c(c4)OCCO5)c3Cl)ccc2CNC[C@@H](O)CC(=O)O)c1` [Example 1147, (S)-4-(4-(2-chloro-3-(2,3-dihydrobenzo[b][1,4]dioxin-6-yl)benzyloxy)-2-(3-cyanobenzyloxy)benzylamino)-3-hydroxybutanoic acid], the IC50 (value given as range class) lay within 0.6 to 10 nM.

With `Cc1c(COc2cc(OCc3cccc(C#N)c3)c(CN[C@H](Cc3cscn3)C(=O)O)cc2Cl)cccc1-c1ccc2c(c1)OCCO2` [Example 1206, (R)-2-((5-chloro-2-((3-cyanobenzyl)oxy)-4-((3-(2,3-dihydrobenzo[b][1,4]dioxin-6-yl)-2-methylbenzyl)oxy)benzyl)amino)-3-(thiazol-4-yl)propanoic acid], the IC50 (value given as range class) lay in the range of 0.6 to 10 nM.

For `Cc1c(COc2cc(OCc3cccc(C#N)c3)c(CNCC(O)CN3CCCC3=O)cc2Cl)cccc1-c1ccc2c(c1)OCCO2` (stereo not shown) [Example 1225], where the note is “value given as range class”, the IC50 fell in the range of 0.6 to 10 nM.

`Cc1cc(CN2CCCC[C@H]2C(=O)O)c(OCCCCC#N)cc1OCc1cccc(-c2ccc3c(c2)OCCO3)c1C` [Example 1296, (S)-1-(2-(4-cyanobutoxy)-4-(3-(2,3-dihydrobenzo[b][1,4]dioxin-6-yl)-2-methylbenzyloxy)-5-methylbenzyl)piperidine-2-carboxylic acid]: the 50% inhibitory concentration (IC50) (value given as range class) was in the range of 10 to 100 nM.

As for `Cc1c(COc2ccc(CN[C@H](CO)C(=O)O)c(OCc3cccc(C#N)c3)c2)cccc1-c1ccccc1` [Example 1016, (R)-2-((2-((3-cyanobenzyl)oxy)-4-((2-methyl-[1,1′-biphenyl]-3-yl)methoxy)benzyl)amino)-3-hydroxypropanoic acid], for the setting “numeric value”, the 50% inhibitory concentration (IC50) was 4.55 nM.

On to `Cc1c(COc2cc(OCc3cccc(C#N)c3)c(CN[C@H](C(=O)O)[C@H](C)O)cc2Cl)cccc1-c1ccc2c(c1)OCCO2` [Example 1189, (2S,3S)-2-((5-chloro-2-((3-cyanobenzyl)oxy)-4-((3-(2,3-dihydrobenzo[b][1,4]dioxin-6-yl)-2-methylbenzyl)oxy)benzyl)amino)-3-hydroxybutanoic acid], for which the half-inhibitory concentration (IC50) (value given as range class) is 0.6 to 10 nM.

For the compound `CC(=O)NCCNCc1ccc(OCc2cccc(-c3ccccc3)c2C)cc1OCCCO` [Example 1035, N-(2-((2-(3-hydroxypropoxy)-4-((2-methyl-[1,1′-biphenyl]-3-yl)methoxy)benzyl)amino)ethyl)acetamide], the half-inhibitory concentration (IC50) (value given as range class) was in the range of 100 to 20000 nM.

For `CSC[C@H](NCc1cc(Cl)c(OCc2cccc(-c3ccc4c(c3)OCCO4)c2C)cc1OCc1cccc(C#N)c1)C(=O)O` [Example 1160, (R)-2-((5-chloro-2-((3-cyanobenzyl)oxy)-4-((3-(2,3-dihydrobenzo[b][1,4]dioxin-6-yl)-2-methylbenzyl)oxy)benzyl)amino)-3-(methylthio)propanoic acid], the IC50 (value given as range class) is 10 to 100 nM.

Regarding `CC(=O)NCCNCc1ccc(OCc2cccc(-c3ccccc3)c2C)cc1OCc1ccc(-c2ccccc2C#N)cc1` [Example 1089, N-(2-((2-((2′-cyano-[1,1′-biphenyl]-4-yl)methoxy)-4-((2-methyl-[1,1′-biphenyl]-3-yl)methoxy)benzyl)amino)ethyl)acetamide], under “value given as range class”, the IC50 was in the range of 100 to 20000 nM.

Regarding `Cc1c(COc2cc(OCc3cccc(C#N)c3)c(CNC[C@@H](O)CC(=O)O)cc2Br)cccc1-c1ccc2c(c1)OCCO2` [Example 1300, (S)-4-((5-bromo-2-((3-cyanobenzyl)oxy)-4-((3-(2,3-dihydrobenzo[b][1,4]dioxin-6-yl)-2-methylbenzyl)oxy)benzyl)amino)-3-hydroxybutanoic acid], for the setting “value given as range class”, the IC50 lay within 0.6 to 10 nM.

In the case of `Cc1c(COc2cc(OCc3cccc(C#N)c3)c(CN3C[C@H](F)C[C@H]3C(=O)O)cc2Cl)cccc1-c1ccc2c(c1)OCCO2` [Example 1215, (2S,4R)-1-(5-chloro-2-((3-cyanobenzyl)oxy)-4-((3-(2,3-dihydrobenzo[b][1,4]dioxin-6-yl)-2-methylbenzyl)oxy)benzyl)-4-fluoropyrrolidine-2-carboxylic acid], under “value given as range class”, the IC50 was 10 to 100 nM.

Turning to `Cc1c(COc2cc(OCC(N)=O)c(CN[C@@H](CO)C(=O)O)cc2Cl)cccc1-c1ccc2c(c1)OCCO2` [Example 3030, (S)-2-((2-(2-amino-2-oxoethoxy)-5-chloro-4-((3-(2,3-dihydrobenzo[b][1,4]dioxin-6-yl)-2-methylbenzyl)oxy)benzyl)amino)-3-hydroxypropanoic acid], where the note is “value given as range class”, the half-inhibitory concentration (IC50) is 0.6 to 10 nM.

For `COc1cc(COc2cc(OCc3cccc(-c4ccccc4)c3C)ccc2CNCCNC(C)=O)ccc1F` [Example 1093, N-(2-((2-((4-fluoro-3-methoxybenzyl)oxy)-4-((2-methyl-[1,1′-biphenyl]-3-yl)methoxy)benzyl)amino)ethyl)acetamide], the concentration for half-maximal inhibition (IC50) (value given as range class) is 100 to 20000 nM.

With `CC(=O)NCCNCc1ccc(OCc2cccc(-c3ccccc3)c2C)cc1OCc1ccccc1Cl` [Example 1053, N-(2-((2-((2-chlorobenzyl)oxy)-4-((2-methyl-[1,1′-biphenyl]-3-yl)methoxy)benzyl)amino)ethyl)acetamide], the 50% inhibitory concentration (IC50) (value given as range class) was 100 to 20000 nM.

For `Cc1c(COc2cc(OCc3cccc(C#N)c3)c(CN[C@@H](Cc3cn(C)cn3)C(=O)O)cc2Cl)cccc1-c1ccc2c(c1)OCCO2` [Example 1176, (S)-2-((5-chloro-2-((3-cyanobenzyl)oxy)-4-((3-(2,3-dihydrobenzo[b][1,4]dioxin-6-yl)-2-methylbenzyl)oxy)benzyl)amino)-3-(1-methyl-1H-imidazol-4-yl)propanoic acid], the IC50 (value given as range class) lay within 0.6 to 10 nM.

`Cc1cc(OCc2cccc(-c3ccc4c(c3)OCCO4)c2C)cc(OCc2cccc(C#N)c2)c1CNC[C@@H](O)CC(=O)O` [Example 1003, (S)-4-(2-(3-cyanobenzyloxy)-4-(3-(2,3-dihydrobenzo[b][1,4]dioxin-6-yl)-2-methylbenzyloxy)-6-methylbenzylamino)-3-hydroxybutanoic acid]: the IC50 (value given as range class) fell in the range of 0.6 to 10 nM.

`CC(=O)NCCNCc1cc(C)c(OCc2cccc(-c3ccc4c(c3)OCCO4)c2C)cc1OCc1cccc(C#N)c1` [Example 1264, N-(2-((2-((3-cyanobenzyl)oxy)-4-((3-(2,3-dihydrobenzo[b][1,4]dioxin-6-yl)-2-methylbenzyl)oxy)-5-methylbenzyl)amino)ethyl)acetamide]: under “value given as range class”, the IC50 lay within 0.6 to 10 nM.

For the compound `COc1cc(OCc2cccc(-c3ccccc3)c2C)cc(OCc2cccc(C#N)c2)c1CN[C@@H](C(=O)O)[C@H](C)O` [Example 1135, (2R,3S)-2-((2-((3-cyanobenzyl)oxy)-6-methoxy-4-((2-methyl-[1,1′-biphenyl]-3-yl)methoxy)benzyl)amino)-3-hydroxybutanoic acid], for the setting “value given as range class”, the IC50 was 0.6 to 10 nM.
